Assay results taken from patent US12492337B2, “Fluorescent probe, preparation method therefor and use thereof” (FLUORESCENCE DIAGNOSIS (SHANGHAI) BIOTECH COMPANY, priority 2017, dated 2025).

Legend:
[1] = tested on: HaloTag protein tags in different subcellular organelles of Hela cells; experiment: Labeling HaloTag protein tags in different subcellular organelles of Hela cells (Example 90); type: cell-based; conditions: 0.2 μM probe, 2 hours, no washing; cytoskeleton, mitochondria, nucleus, Golgi, whole cells, lysosomes
Procedure: In order to verify that probe 57, probe 59, probe 60, probe 61, probe 62, and probe 63 can be used to label target proteins located in different organelles. Hela cells were used as examples to detect the effect of probes on labeling HaloTag protein tags in different subcellular organelles. Hela cells were implanted 5000 cells per well in 96-well glass-bottom cell culture plates. After 14 hours, lipo2000 kit was used to transfect the plasmids localized by HaloTag protein tags in different organelles. The original culture medium was removed 24 hours after transfection, and the cells were washed twice with a phenol red-free DMEM medium, and incubated for 2 hours in a phenol red-free medium containing 0.2 μM probes, and the effect of cell labelling was detected by imaging using a Leica TCS-8 confocal microscope.

HaloTag protein tag = experiment: Probe mixed with HaloTag protein tag, fluorescence spectrophotometer (Example 86); type: biochemical; conditions: 5 μM probe, 10 μM protein tag, 37° C., 1 hour
Procedure: (§1) A probe was mixed with a corresponding HaloTag protein tag to obtain a mixed sample. The final concentration of the probe in the mixed sample was 5 μM and the final concentration of the protein tag was 10 μM. The mixed sample was incubated at 37° C. for 1 hour, and the sample was detected using a fluorescence spectrophotometer.

[2] = Viscosity responsiveness: fluorescence intensity in glycerol versus methanol; type: physicochemical; conditions: fluorescence intensity in glycerol to that in methanol
Procedure, shortened: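 At 25 °C, with the same dye concentration and excitation wavelength, maximum emission intensity in glycerol was compared with intensity in methanol, giving a ratio. Dye concentrations ranged from 1×10^−7 M to 1×10^−5 M.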

[3] = tested on: Hela cells stably expressing HaloTag protein tags; experiment: Confocal imaging of labeled Hela cells stably expressing HaloTag protein tags (Example 89); type: cell-based; conditions: Homo sapiens, 5 μM probe, 2 hours, 37° C., confocal microscope, read-out: fluorescence signal enhancement in Hela cells expressing the protein tag
Procedure: (§2) Hela cells are used as an example to test the labeling effect of compounds in mammalian cells. Hela cells and Hela-WT cells (Hela primitive cell, without a protein tag expressed) stably expressing HaloTag protein tags were planted in 14 mm 96-well glass bottom cell culture plates and stabilized for 10 hours. Probe 57, probe 59, probe 60, probe 61, probe 69, probe 75, probe 76, probe 82 were added to the culture medium and diluted to 5 μM, respectively. The cells were incubated in a 37° C. carbon dioxide incubator for 2 hours, and the fluorescence changes of the labeled cells were detected by imaging with a Leica TPS-8 confocal microscope.

[4] = tested on: fusion protein CX43-HaloTag; experiment: Tracing assembly of CX43-HaloTag intercellular channels in Hela cells (Example 94); type: cell-based; conditions: 2 μM probe, 1 hour, Hela-CX43-HaloTag cells
Text: To verify that the probe can be used to monitor the assembly and degradation of biomacromolecules in mammalian cells in real time, Hela cells were used as an example to detect the process of tracing, by a probe, the assembly of intercellular protein CX43 to form intercellular channels in mammalian cells. The C-terminus of CX43 gene was fused with HaloTag gene, and a Hela cell line stably expressing the fusion protein CX43-HaloTag was constructed and obtained by lentiviral infection technology. Hela-CX43-HaloTag cell lines were implanted in a 20 mm glass-bottom cell culture dish 10 hours before the probe labeling. When labeling, the probe 61 μM was first diluted to 2 μM with phenol red-free DMEM medium and replaced the original cell culture medium. The cells were incubated in a 37° C. carbon dioxide incubator for 1 hour. Thereafter, the cells were washed twice with fresh phenol red-free DMEM medium, and the unbound probe 61 was removed at intervals of 2 min. Then, a DMEM phenol-free medium containing 1 μM probe 57 was added to label the cells, and a Leica SP8 confocal microscope was used to monitor the fluorescence intensity and position changes of labeled cells at the corresponding fluorescence channels of probe 61 and probe 57 for a long time, which are shown in FIGS. 17A and 17B, respectively. […]

Hela-WT cells = experiment: Confocal imaging of Hela-WT cells without protein tag (Example 89); type: cell-based; conditions: 5 μM probe, 2 hours, 37° C., confocal microscope
Procedure: as §2

[5] = tested on: HaloTag-IAA17-H2B protein; experiment: Fluorescence change on IAA-induced degradation of HaloTag-IAA17-H2B in Hela cells (Example 93); type: cell-based; conditions: 1 μM probe, 1 hour labeling, then IAA-induced protein degradation
Procedure: In order to verify the correlation between the fluorescent activation of the probe and the presence of protein, the HaloTag protein in mammalian cells was taken as an example, and the AID degradation system in Hela cells was used as an example to detect the fluorescence changes of HaloTag protein binding probes after protein degradation. First, Hela cells were implanted 20,000/cm^2 in a 20 mm glass-bottomed cell culture dish. After 14 hours, pcdna3.1-TIR1 and pcdna3.1-HaloTag-IAA17-H2B plasmids were transfected with lipofectmain2000 transfection reagent from invirtogen. 24 hours after cell transfection, the original cell culture medium was replaced with a phenol red-free DMEM medium containing 1 μM probe 61 to label the cells, and the cell samples were incubated in a 37° C. carbon dioxide incubator for 1 hour. After the labeling was completed, the fluorescence signal of cell labels was detected by imaging using a Leica SP8 laser confocal microscope. Then, indole acetic acid (IAA) was added to induce the degradation of HaloTag-IAA17-H2B protein, and the changes in cell fluorescence during protein degradation were detected. […] When proteins are present, fluorescence is activated, and when proteins are degraded, fluorescence disappears, which can be used to track and monitor the degradation process of target proteins.

[6] = Quantum yield of free probe not reacted with protein tag; type: physicochemical
Procedure: as §1

CN(C)c1cc2sc(/C=C(\C#N)C(=O)NCCOCCOCCCCCCCl)cc2s1 [Probe 61]
effect of cell labelling of subcellular organelles [1]: clearly display a variety of subcellular organelle structures without washing | The quantum yield after binding to Halo-tag (HaloTag protein tag): 0.59 | Fluorescence enhancement (HaloTag protein tag; fluorescence activation multiple after binding protein tag): 668 | Emission/nm (HaloTag protein tag; fluorescence emission wavelength): 552 nm | ratio [2]: 817 | fold induction at 5 µM [3]: ~200 | fluorescent signal in the probe 61 fluorescence channel [4]: long column-shaped specific fluorescent signal between the two cells | fluorescent signal in Hela-WT cells (Hela-WT cells): no corresponding fluorescent signal could be detected | fluorescence signal after indoleacetic acid added for 90 min [5]: almost invisible | The quantum yield of the free probe [6]: 0.0012
